# Data taken from patent publication US6919328B1, “Tricyclic compounds with NOS activity” (Neuraxon Inc., priority 2001, dated 2005).
# Where a name gives a salt, the structure may show the parent alone.
# How the values were obtained:
# nNOS = nNOS (Homo sapiens, UniProt P29475); assay: nNOS enzyme assay (hemoglobin capture assay); assay type: biochemical; settings: for inhibition at 100 µM: read-out: Percent Inhibition of NOS, nNOS; for IC50: hemoglobin capture assay, initial velocity, read-out: IC50 of NOS, nNOS
# Procedure: (§1) The generation of nitric oxide by NOS was measured using the hemoglobin capture assay (Proc. Natl. Acad. Sci., U.S.A. 1990, 87, 714). As assay mixture for nNOS contained […], 1.6 mM CaCl2, […] calmoduline, […], 6.5 mM BH4 and 3 mM oxyhemoglobin in 100 mM Hepes (pH 7.5). The reaction mixture for iNOS contained 10 mM of L-arginine, […], 6.5 mM BH4 and 3 mM oxyhemoglobin in 100 mM Hepes (pH 7.5). All assays were in a final volume of […] and were initiated with enzyme. Nitric oxide reacts with oxyhemoglobin to yield methehemoglobin which is detected at 401 nm (e=19,700 M^−1cm^−1) on a Perkin-Elmer Lamda 10 UV/vis spectrophotometer.
# (§2) IC50 and percent inhibition of NOS by the compounds of the invention was determined under initial velocity measurement condition with hemoglobin capture assay as described above using varying concentrations of the compounds of the invention.
# iNOS = iNOS (Homo sapiens, UniProt P35228); assay: iNOS enzyme assay (hemoglobin capture assay); assay type: biochemical; settings: for inhibition at 100 µM: read-out: Percent Inhibition of NOS, iNOS; for IC50: hemoglobin capture assay, initial velocity, read-out: IC50 of NOS, iNOS
# Procedure: as §1, §2
compound,measurement,setting,value
"N=C(Nc1ccc2c(c1)C(=O)Nc1ccccc1N2)SCc1ccc2ccccc2c1 [Example 12, 2-Naphthalen-2-ylmethyl-1-(11-oxo-10,11-dihydro-5H-dibenzo[b,e][1,4]diazepin-2-yl)-isothiourea]",inhibition at 100 µM,nNOS,21%
same,inhibition at 100 µM,iNOS,28%
"O=C(NC(=S)Nc1ccc2c(c1)C(=O)Nc1ccccc1N2)c1ccccc1 [Example 8, 1-Benzoyl-3-(11-oxo-10,11-dihydro-5H-dibenzo[b,e][1,4]diazepin-2-yl)-thiourea]",IC50,nNOS,120 µM
same,IC50,iNOS,300 µM
"O=C1Nc2ccccc2Oc2ccc(NC(=S)Nc3ccccc3)cc21 [Example 17, 1-(11-Oxo-10,11-dihydro-dibenzo[b,f][1,4]oxazegin-2-yl)-3-phenyl-thiourea]",inhibition at 100 µM,nNOS,7%
same,inhibition at 100 µM,iNOS,24%
"CCSC(=N)Nc1ccc2c(c1)C(=O)Nc1ccccc1N2 [Example 10, 2-Ethyl-1-(11-oxo-10,11-dihydro-5H-dibenzo[b,e][1,4]diazepin-2-yl)-isothiourea]",IC50,nNOS,20 µM
same,IC50,iNOS,100 µM
"CC(=O)Nc1ccc2c(c1)C(=O)Nc1ccccc1N2 [Example 7, N-(11-Oxo-10,11-dihydro-5H-dibenzo[b,e][1,4]diazepin-2-yl)-acetamide]",IC50,nNOS,400 µM
same,IC50,iNOS,500 µM
"N=C(Nc1ccc2c(c1)C(=O)Nc1ccccc1N2)c1cccs1 [Example 19, N-(11-Oxo-10,11-dihydro-5H-dibenzo[b,e][1,4]diazepin-2-yl)-thiophene-2-carboxamidine hydrobromide]",inhibition at 100 µM,nNOS,42%
same,inhibition at 100 µM,iNOS,17%
"NC(=S)Nc1ccc2c(c1)C(=O)Nc1ccccc1O2 [Example 16, (11-Oxo-10,11-dihydro-dibenzo[b,f][1,4]oxazepin-2-yl)-thiourea]",IC50,nNOS,200 µM
same,IC50,iNOS,150 µM
"CC(=N)Nc1ccc2c(c1)C(=O)Nc1ccccc1N2 [Example 11, N-(11-Oxo-10,11-dihydro-5H-dibenzo[b,e][1,4]diazeoin-2-yl)-acetamidine hydrobromide]",IC50,nNOS,200 µM
same,IC50,iNOS,500 µM
"O=C(NC(=S)Nc1ccc2c(c1)C(=O)Nc1ccccc1O2)c1ccccc1 [Example 15, 1-Benzoyl-3-(11-oxo-10,11-dihydro-dibenzo[b,f][1,4]oxazepin-2-yl)-thiourea]",IC50,nNOS,100 µM
same,IC50,iNOS,200 µM
"N=C(Nc1ccc2c(c1)C(=O)Nc1ccccc1N2)SCc1ccccc1 [Example 13, 2-Benzyl-1-(11-oxo-10,11-dihydro-5H-dibenzo[b,e][1,4]diazepin-2-yl)-isothiourea]",inhibition at 100 µM,nNOS,48%
same,inhibition at 100 µM,iNOS,29%
"N=C(Nc1ccc2c(c1)C(=O)Nc1ccccc1O2)c1cccs1 [Example 18, N-(11-Oxo-10,11-dihydro-dibenzo[b,f][1,4]oxazepin-2-yl)-thiophene-2-carboxamidine hyrobromide]",inhibition at 100 µM,nNOS,25%
same,inhibition at 100 µM,iNOS,14%
"CC(=N)Nc1ccc2c(c1)C(=O)Nc1ccccc1O2 [Example 14, N-(11-Oxo-10,11-dihydro-dibenzo[b,f][1,4]oxazepin-2-yl)-acetamidine]",IC50,nNOS,200 µM
same,IC50,iNOS,300 µM
"NC(=S)Nc1ccc2c(c1)C(=O)Nc1ccccc1N2 [Example 9, (11-Oxo-10,11-dihydro-5H-dibenzo[b,e][1,4]diazepin-2-yl)-thiourea]",IC50,nNOS,250 µM
same,IC50,iNOS,300 µM
